Measured values from PubChem BioAssay AID651833 (Broad Institute, 2012).
Several values for one entry are separate records, joined by “and”; a condition that tells them apart may be missing. Equal values may be shown once. Activity calls are given as the source filed them.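 Rule for the calls: active = fitted curve reaching 40% activation at or below the sample's highest valid tested dose; inconclusive = flat fit between 30% and 70%, or poor fit; inactive = the rest, including opposite-direction activity.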

Target: Kelch-like ECH-associated protein 1 (Homo sapiens) + Nuclear factor erythroid 2-related factor 2 (Homo sapiens) (UniProt Q14145+Q16236)
Experiment: cellular Nrf2 nuclear translocation induction – PathHunter, U2OS cells, dry powder, orthogonal assay for Keap1-Nrf2 interaction inhibitor project, dose response (AID 651833)
Details: beta-gal luminescence, 3 h

Kelch-like ECH-associated protein 1 (Homo sapiens) + Nuclear factor erythroid 2-related factor 2 (Homo sapiens), sequence (Q14145 whole entry, looked up): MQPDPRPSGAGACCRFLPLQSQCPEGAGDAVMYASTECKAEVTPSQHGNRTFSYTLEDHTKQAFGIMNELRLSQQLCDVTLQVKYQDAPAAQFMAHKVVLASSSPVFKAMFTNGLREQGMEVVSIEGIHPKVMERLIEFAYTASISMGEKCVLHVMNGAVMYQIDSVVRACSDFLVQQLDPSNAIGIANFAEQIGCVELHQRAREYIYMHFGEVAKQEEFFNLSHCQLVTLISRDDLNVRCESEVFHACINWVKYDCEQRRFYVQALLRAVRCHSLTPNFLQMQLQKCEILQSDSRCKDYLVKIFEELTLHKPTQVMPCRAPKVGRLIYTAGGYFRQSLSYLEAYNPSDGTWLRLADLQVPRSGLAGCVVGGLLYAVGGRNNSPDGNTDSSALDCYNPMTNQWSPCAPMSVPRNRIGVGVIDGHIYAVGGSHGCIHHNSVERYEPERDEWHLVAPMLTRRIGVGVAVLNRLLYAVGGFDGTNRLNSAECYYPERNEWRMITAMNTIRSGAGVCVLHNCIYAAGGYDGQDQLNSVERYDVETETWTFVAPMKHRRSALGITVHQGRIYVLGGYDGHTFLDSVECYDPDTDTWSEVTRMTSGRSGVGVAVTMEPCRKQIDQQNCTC
Kelch-like ECH-associated protein 1 (Homo sapiens) + Nuclear factor erythroid 2-related factor 2 (Homo sapiens), sequence (Q16236 whole entry, looked up): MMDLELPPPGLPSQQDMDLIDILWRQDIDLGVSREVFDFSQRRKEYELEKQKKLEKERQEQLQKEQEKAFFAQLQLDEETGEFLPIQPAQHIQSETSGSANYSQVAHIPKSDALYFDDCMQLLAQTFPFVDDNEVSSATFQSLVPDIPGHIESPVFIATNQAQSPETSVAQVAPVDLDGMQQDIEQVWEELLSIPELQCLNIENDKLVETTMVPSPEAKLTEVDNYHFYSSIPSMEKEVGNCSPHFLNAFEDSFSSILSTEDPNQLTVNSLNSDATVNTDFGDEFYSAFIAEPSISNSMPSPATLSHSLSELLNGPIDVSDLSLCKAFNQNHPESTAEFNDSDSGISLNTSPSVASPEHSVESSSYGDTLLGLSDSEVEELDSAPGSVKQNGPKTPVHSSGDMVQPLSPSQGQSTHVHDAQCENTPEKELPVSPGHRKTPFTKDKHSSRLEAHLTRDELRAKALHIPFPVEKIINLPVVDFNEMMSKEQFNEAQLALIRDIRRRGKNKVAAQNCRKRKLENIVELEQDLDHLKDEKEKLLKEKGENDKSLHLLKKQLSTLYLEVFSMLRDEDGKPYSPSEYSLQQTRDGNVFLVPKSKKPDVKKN

| Structure (SMILES) | activation (at 38 µM (top of the series)) | further results |
| --- | --- | --- |
| CCOC(=O)C(C(=O)OCC)c1nc(NS(=O)(=O)c2c(C)cc(C)cc2C)c2ccccc2n1 | 1.28% (inactive) | – |
| O=C(O)C1CCCCC1C(=O)N1CCc2ccccc2[C@H]1C(=O)NC12CC3CC(CC(C3)C1)C2 (some centres not stated) | -2.47% (inactive) | – |
| O=C(O)C1CCCCC1C(=O)NCC1c2ccccc2CCN1C(=O)Cc1ccccc1 (configuration not stated) | 0.036% (inactive) | – |
| CCOC(=O)C(C(=O)OCC)c1cc(CN2C(=O)c3ccccc3C2=O)c2ccccc2n1 | 9.41% (inactive) | – |
| O=C(NC[C@@H]1c2ccccc2CCN1C(=O)[C@@H]1CCCC[C@@H]1C(=O)O)c1ccc(CCl)cc1 | – | AC40: > 38 µM (inactive) |
| C=CC(=O)NC[C@@H]1c2ccccc2CCN1C(=O)[C@@H]1CCCC[C@@H]1C(=O)O | 6.96% (inactive) | – |
| O=C(O)[C@H]1CCCC[C@H]1C(=O)N1CCc2ccccc2[C@H]1CNS(=O)(=O)c1ccccc1 | 7.86% (inactive) | – |
| O=C(O)[C@H]1C2C=CC(C2)[C@H]1C(=O)N1CCc2ccccc2C1CN1C(=O)c2ccccc2C1=O (some centres not stated) | – | AC40: > 38 µM (inactive) |
| COC(=O)CNc1nc(NS(=O)(=O)c2c(C)cc(C)cc2C)c2ccccc2n1 | 3.66% (inactive) | – |
| O=C(NC[C@@H]1c2ccccc2CCN1C(=O)[C@@H]1CCCC[C@@H]1C(=O)O)OCC1c2ccccc2-c2ccccc21 | – | AC40: > 38 µM (inactive) |
| Cc1cc(C)c(S(=O)(=O)Nc2ncnc3ccccc23)c(C)c1 | 2.9% (inactive) | – |
| O=C(O)C1CCCCC1C(=O)N1CCCCC1CN1C(=O)c2ccccc2C1=O (configuration not stated) | -1.78% (inactive) | – |
| Cc1ccccc1S(=O)(=O)Nc1cc(C(C(=O)OC(C)C)C(=O)C(F)(F)F)c(O)c2ccccc12 (configuration not stated) | – | AC40: 6.97 µM |
| CCOC(=O)C(C(=O)OCC)c1cc(CNS(=O)(=O)c2ccc(C)cc2C)c2ccccc2n1 | 1.4% (inactive) | – |
| O=C1c2ccccc2C(=O)N1C[C@@H]1c2ccccc2CCN1C(=O)C1CCCCC1 | 0.733% (inactive) | – |
| Cc1cc(C)c(S(=O)(=O)Nc2cc(C(C(=O)OC(C)C)C(=O)C(F)(F)F)c(O)c3ccccc23)c(C)c1 (configuration not stated) | – | AC40: 1.1 µM |
| CC(C)CNc1nc(NS(=O)(=O)c2ccccc2)c2ccccc2n1 | 7.06% (inactive) | – |
| O=C(O)C1CCCCC1C(=O)N1CCc2ccccc2C1CN1Cc2ccccc2C1=O (configuration not stated) | – | AC40: > 38 µM (inactive) |
| O=C(O)C1CCCCC1C(=O)N1CCc2ccccc2[C@H]1C(=O)NCCc1ccccc1 (some centres not stated) | 0.849% (inactive) | – |
| O=C(O)C1CCCCC1C(=O)N1CCc2ccccc2C1CN1C(=O)c2ccccc2S1(=O)=O (configuration not stated) | 13.7% (inactive) | – |
| CC(=O)Nc1cc(NS(=O)(=O)c2c(C)cc(C)cc2C)c2ccccc2c1O | – | AC40: 27.2 µM |
| O=C(O)[C@H]1CCCC[C@H]1C(=O)N1CCc2ccccc2[C@H]1CNS(=O)(=O)c1ccc([N+](=O)[O-])cc1 | 6.37% (inactive) | – |
| COC(=O)[C@@H]1CCCC[C@@H]1C(=O)N1CCc2ccccc2[C@H]1CN1C(=O)c2ccccc2C1=O | -2.72% (inactive) | – |
| Cc1ccc(S(=O)(=O)Nc2cc(C(C(=O)OC(C)C)C(=O)C(F)(F)F)c(O)c3ccccc23)cc1 (configuration not stated) | – | AC40: 12.1 µM |
| Cc1ccc(S(=O)(=O)Nc2cc(C(C(=O)OC(C)C)C(=O)C(F)(F)F)c(O)c3ccccc23)c(C)c1 (configuration not stated) | – | AC40: 5.12 µM |
| Cc1ccc(S(=O)(=O)NC(=O)[C@@H]2c3ccccc3CCN2C(=O)[C@@H]2CCCC[C@@H]2C(=O)O)cc1 | 6.05% (inactive) and 8.58% (inactive) | – |

| Structure (SMILES) | activation (at 38 µM (top of the series)) | further results |
| --- | --- | --- |
| Cc1ccc(S(=O)(=O)NNc2nc(N3CC(O)CC3C(=O)O)nc3ccccc23)cc1 (configuration not stated) | – | AC40: > 38 µM (inactive) |
| COc1ccccc1CCNC(=O)[C@@H]1c2ccccc2CCN1C(=O)C1CCCCC1C(=O)O (some centres not stated) | -2.36% (inactive) and -1.69% (inactive) | – |
| O=C(O)C1CCCCC1C(=O)N1CCc2ccccc2C1CN1C(=O)Cc2ccccc2C1=O (configuration not stated) | 8.47% (inactive) | – |
| Cc1ccc(S(=O)(=O)NNc2nc(NCC(N)=O)nc3ccccc23)cc1 | 3% (inactive) | – |
| O=C(O)c1ccccc1C(=O)N1CCc2ccccc2C1CN1C(=O)c2ccccc2C1=O (configuration not stated) | 4.54% (inactive) | – |
| Cc1ccc(S(=O)(=O)NC2=CC(=N[C@@H](C)C(=O)OC(C)(C)C)C(=O)c3ccccc32)c(C)c1 | – | AC40: > 38 µM (inactive) |
| O=C(Oc1cc(CN2C(=O)c3ccccc3C2=O)c2ccccc2[n+]1[O-])c1cccc(Cl)c1 | – | AC40: 30 µM |
| O=C(O)Cc1ccccc1C(=O)N1CCc2ccccc2[C@H]1CN1C(=O)c2ccccc2C1=O | – | AC40: > 38 µM (inactive) |
| O=C(NC[C@@H]1c2ccccc2CCN1C(=O)[C@@H]1CCCC[C@@H]1C(=O)O)c1ccccc1CO | 2.2% (inactive) | – |
| COC(=O)C(C(=O)OC)c1cc(NS(=O)(=O)c2c(C)cc(C)cc2C)c2ccccc2c1O | – | AC40: 4.21 µM |
| Cc1cc(C)c(S(=O)(=O)Nc2cc(C(C(=O)OCc3ccccc3)C(=O)OCc3ccccc3)c(O)c3ccccc23)c(C)c1 | 5.34% (inactive) | – |
| Cc1cc(C)c(S(=O)(=O)Nc2nc(C(C(=O)OC(C)C)C(=O)C(F)(F)F)nc3ccccc23)c(C)c1 (configuration not stated) | – | AC40: > 38 µM (inactive) |
| O=C(NCCCN1CCOCC1)c1ccccc1C(=O)NC[C@@H]1c2ccccc2CCN1C(=O)C1CCCCC1C(=O)O (some centres not stated) | 4.62% (inactive) | – |
| O=C1c2ccccc2C(=O)N1CC1c2ccccc2CCN1C(=O)Cc1ccccc1 (configuration not stated) | – | activation (at 10 µM (top of the series)): -2.75% (inactive) |
| O=C(Cc1ccccc1)NC[C@@H]1c2ccccc2CCN1C(=O)[C@@H]1CCCC[C@@H]1C(=O)O | 6.26% (inactive) | – |
| Cc1cc(C)c(S(=O)(=O)Nc2nc(NCCO)nc3ccccc23)c(C)c1 | 3.36% (inactive) | – |
| O=C(O)CC(=O)N1CCc2ccccc2C1CN1C(=O)c2ccccc2C1=O (configuration not stated) | 2.73% (inactive) | – |
| CC(C)OC(=O)C(C(=O)C(F)(F)F)c1cc(NS(=O)(=O)c2ccccc2)c2ccccc2c1O (configuration not stated) | – | AC40: 20 µM |
| COC(=O)[C@H]1CCCC[C@H]1C(=O)N1CCc2ccccc2[C@H]1CN1C(=O)c2ccccc2C1=O | -2.1% (inactive) | – |
| O=C(NC[C@@H]1c2ccccc2CCN1C(=O)[C@@H]1CCCC[C@@H]1C(=O)O)c1ccccc1 | – | AC40: > 38 µM (inactive) |
| Cc1ccc(S(=O)(=O)NNc2nc(C(C(=O)OC(C)C)C(=O)C(F)(F)F)nc3ccccc23)cc1 (configuration not stated) | – | AC40: 18.5 µM |
| O=C(NCCc1ccccc1)c1ccccc1C(=O)NC[C@@H]1c2ccccc2CCN1C(=O)C1CCCCC1C(=O)O (some centres not stated) | 5.09% (inactive) | – |
| O=C(O)C1CCCCC1C(=O)N1CCc2ccccc2C1c1ccccc1 (configuration not stated) | -2.53% (inactive) | – |
| COC(=O)C1CCCCC1C(=O)N1CCc2ccccc2C1CN1C(=O)c2ccccc2C1=O (configuration not stated) | 1.27% (inactive) | – |
| O=C(NCCO)c1ccccc1C(=O)NC[C@@H]1c2ccccc2CCN1C(=O)C1CCCCC1C(=O)O (some centres not stated) | 4.09% (inactive) | – |

Further lines, with some results ahead:

| activation (at 38 µM (top of the series)) | Structure (SMILES) | further results |
| --- | --- | --- |
| 3.97% (inactive) | O=S(=O)(Nc1nc(NCC2CCCCC2)nc2ccccc12)c1ccccc1 | – |
| -2.72% (inactive) | O=C(O)C1CCCCC1C(=O)Nc1ccccc1CN1C(=O)c2ccccc2C1=O (configuration not stated) | – |
| 11% (inactive) and -0.217% (inactive) | O=C(O)[C@H]1CCCC[C@H]1C(=O)N1CCC2=C(CCCC2)C1CN1C(=O)c2ccccc2C1=O (some centres not stated) | – |
| -1.98% (inactive) | O=C(O)[C@H]1CCCC[C@H]1C(=O)NC(CN1C(=O)c2ccccc2C1=O)c1ccccc1 (some centres not stated) | – |
| 4.54% (inactive) | NC(=O)[C@H]1CCCC[C@H]1C(=O)N1CCc2ccccc2[C@H]1CN1C(=O)c2ccccc2C1=O | – |
| 5.4% (inactive) | O=C(O)[C@H]1CCCC[C@H]1C(=O)N1CCc2ccccc2[C@H]1CNc1nc(Cl)nc2ccccc12 | – |
| 5.41% (inactive) | O=C(O)[C@@H]1CCCN1C(=O)N1CCc2ccccc2[C@H]1CN1C(=O)c2ccccc2C1=O | – |
| 8.62% (inactive) | CCOC(=O)Cc1nc(NS(=O)(=O)c2c(C)cc(C)cc2C)c2ccccc2n1 | – |
| -2.15% (inactive) | COC(=O)[C@@H]1CCCC[C@@H]1C(=O)N1CCc2ccccc2[C@@H]1CN1C(=O)c2ccccc2C1=O | – |
| -4.29% (inactive) | C[C@H](NC(=O)C1CCCC[C@H]1C(=O)O)c1ccccc1 (mixture of isomers) | – |
| -1.8% (inactive) | C[C@@H](NC(=O)C1CCCC[C@H]1C(=O)O)c1ccccc1 (mixture of isomers) | – |
| 4.66% (inactive) | Cc1ccc(S(=O)(=O)NC[C@@H]2c3ccccc3CCN2C(=O)[C@@H]2CCCC[C@@H]2C(=O)O)c(C)c1 | – |
| 5.19% (inactive) | COc1ccc(CCN=C2C=C(NS(=O)(=O)c3c(C)cc(C)cc3C)c3ccccc3C2=O)cc1 | – |
| -0.067% (inactive) | O=C1c2ccccc2C(=O)N1CC1=NCCc2ccccc21 | – |
| -2.67% (inactive) | O=C1c2ccccc2C(=O)N1C[C@H]1NCCc2ccccc21 | – |
| 8.88% (inactive) | NC(=O)c1ccccc1C(=O)NC[C@@H]1c2ccccc2CCN1C(=O)[C@@H]1CCCC[C@@H]1C(=O)O | – |
| 0.812% (inactive) and -0.193% (inactive) | O=C(O)[C@H]1CCCC[C@H]1C(=O)N1CCc2ccccc2C1CCN1C(=O)c2ccccc2C1=O (some centres not stated) | – |
| -0.662% (inactive) | O=C(O)[C@H]1CCCC[C@H]1C(=O)N1CCc2ccccc2C1 (racemic) | – |
| 1.45% (inactive) | O=C1c2ccccc2C(=O)N1C[C@@H]1c2ccccc2CCN1C(=O)OCc1ccccc1 | – |
| 0.179% (inactive) | O=C(O)c1ccccc1C(=O)NC[C@@H]1c2ccccc2CCN1C(=O)[C@@H]1CCCC[C@@H]1C(=O)O | – |
| 3.41% (inactive) | O=C(O)CCCC(=O)N1CCc2ccccc2C1CN1C(=O)c2ccccc2C1=O (configuration not stated) | – |
| 2.86% (inactive) | O=C(NC[C@@H]1c2ccccc2CCN1C(=O)[C@@H]1CCCC[C@@H]1C(=O)O)c1ccc(CN2CCOCC2)cc1 | – |
| 4.38% (inactive) | O=C(O)C1CCCCC1C(=O)N1CCc2ccccc2C1CN1C(=O)[C@H]2CCCC[C@H]2C1=O (some centres not stated) | – |
| 13% (inactive) | O=C(O)/C=C\C(=O)N1CCc2ccccc2C1CN1C(=O)c2ccccc2C1=O (configuration not stated) | – |
| 2.02% (inactive) | Cc1cc(C)c(S(=O)(=O)Nc2nc(N(C)C)nc3ccccc23)c(C)c1 | – |
| 1.36% (inactive) | O=C(O)CCC(=O)N1CCc2ccccc2C1CN1C(=O)c2ccccc2C1=O (configuration not stated) | – |
